Values after ≈ are worked out from the molar mass of the structure shown. Active and inactive are the calls of the source. The rule behind the calls is not given here. Where a SMILES comes first, the peptide text is derived from it. Bridges are numbered along the chain shown (N, C = ends). [ ]: non-standard residue; d: D form. The star is where a group is joined. X1 = CC[C@H](C)CCCCC(=O)*; Dab = NCC[C@H](N)C(=O)O
Assays:
Staphylococcus aureus [1] = assay: Antibacterial activity against Staphylococcus aureus ATCC 25923 incubated for 18 hrs by CLSI based broth dilution method; assay type: functional
Bacillus subtilis = assay: Antibacterial activity against Bacillus subtilis ATCC 23857 incubated for 18 hrs by CLSI based broth dilution method; assay type: functional
Enterococcus faecalis = assay: Antibacterial activity against Enterococcus faecalis ATCC 29212 incubated for 18 hrs by CLSI based broth dilution method; assay type: functional
[2] = system: Staphylococcus epidermidis; assay: Antibacterial activity against Staphylococcus epidermidis ATCC 12228 incubated for 18 hrs by CLSI based broth dilution method; assay type: functional
Escherichia coli [3] = assay: Antibacterial activity against Escherichia coli ATCC 25922 incubated for 18 hrs by CLSI based broth dilution method; assay type: functional
Pseudomonas aeruginosa [4] = assay: Antibacterial activity against Pseudomonas aeruginosa ATCC 27853 incubated for 18 hrs by CLSI based broth dilution method; assay type: functional
Klebsiella pneumoniae [5] = assay: Antibacterial activity against Klebsiella pneumoniae ATCC 700603 incubated for 18 hrs by CLSI based broth dilution method; assay type: functional
Acinetobacter baumannii = assay: Antibacterial activity against Acinetobacter baumannii ATCC 19606 incubated for 18 hrs by CLSI based broth dilution method; assay type: functional; settings: ATCC 19606 = CIP 70.34 = JCM 6841
Erythrocyte = assay: Hemolytic activity in BALB/C mouse erythrocytes incubated for 1 hr by absorbance method; assay type: ADME, cell-based
[6] = Cytotoxicity against human glomerular mesangial cells incubated for 12 hrs by MTT assay; assay type: cell-based; settings: Glomerular mesangial cell
Cell membrane [7] = assay: Disruption of membrane integrity in Staphylococcus aureus ATCC 25923 assessed as membrane shrinking at 1 times MIC measured within 0.5 hrs by scanning electron microscopy; assay type: subcellular
Pseudomonas aeruginosa [8] = assay: Antibacterial activity against gentamicin-resistant Pseudomonas aeruginosa ATCC 27853 incubated for 18 hrs by CLSI based broth dilution method; assay type: functional
Bacteria [9] = assay: Antibacterial activity against bacteria incubated for 18 hrs by CLSI based broth dilution method; assay type: functional
Fungi = assay: Antibacterial activity against fungi incubated for 18 hrs by CLSI based broth dilution method; assay type: functional
[10] = Selectivity ratio of MHC10 for BALB/C mouse erythrocytes to MIC for bacteria; assay type: toxicity
[11] = Selectivity ratio of MHC10 for BALB/C mouse erythrocytes to MIC for fungi; assay type: toxicity
Bacteria [12] = assay: Antibacterial activity against Gram-positive bacteria incubated for 18 hrs by CLSI based broth dilution method; assay type: functional
[13] = Selectivity ratio of MHC10 for BALB/C mouse erythrocytes to MIC for gram positive bacteria; assay type: toxicity
Bacteria [14] = assay: Antibacterial activity against Gram-negative bacteria incubated for 18 hrs by CLSI based broth dilution method; assay type: functional
[15] = Selectivity ratio of MHC10 for BALB/C mouse erythrocytes to MIC for gram-negative bacteria; assay type: toxicity
Staphylococcus aureus [16] = assay: Bactericidal activity against Staphylococcus aureus ATCC 25923 at 2MIC by time-kill assay; assay type: functional, organism-based; settings: time 24.0 hrs, TDE = time-dependent effect
Klebsiella pneumoniae [17] = assay: Bactericidal activity against Klebsiella pneumoniae 700603 at 2MIC by time-kill assay relative to control; assay type: functional
Staphylococcus aureus [18] = assay: Antibacterial activity against Staphylococcus aureus ATCC 25923 incubated with 2000 ug/ml trypsin for 6 hrs followed by bacterial addition and measured after 18 hrs by CLSI based broth dilution method; assay type: functional, organism-based; settings: dose 2000.0 µg/ml, time 23.0 hrs
Cell membrane [19] = assay: Induction of inner membrane permeabilization in Klebsiella pneumoniae ATCC 700603 at 0.5 to 4MIC using ONPG as substrate by spectroscopic method; assay type: subcellular; settings: Klebsiella pneumoniae 700603, 0.5 to 4M
Staphylococcus aureus [20] = assay: Antibacterial activity against Staphylococcus aureus ATCC 25923 at 0.5 to 1 times MIC incubated for 24 hrs by crystal violet staining based assay; assay type: functional, organism-based
Lipopolysaccharide (LPS) = assay: Binding affinity to LPS (unknown origin) assessed as bacterial killing at 2 times MIC preincubated for 1 hr followed by Escherichia coli ATCC 25922 addition and measured after 2 hrs by absorbance method; settings: time 3.0 hrs
Staphylococcus aureus [21] = assay: Disruption of membrane integrity in Staphylococcus aureus ATCC 25923 assessed as membrane blebbing at 1 times MIC measured within 0.5 hrs by scanning electron microscopy; assay type: functional, organism-based
Cell membrane [22] = assay: Disruption of membrane integrity in Staphylococcus aureus ATCC 25923 assessed as bacterial death at 1 times MIC measured within 0.5 hrs by scanning electron microscopy; assay type: subcellular
Cell membrane [23] = assay: Disruption of membrane integrity in Klebsiella pneumoniae ATCC 700603 assessed as bacterial death at 1 times MIC incubated for 0.5 to 2 hrs by scanning electron microscopy; assay type: subcellular; settings: Klebsiella pneumoniae 700603, time 0.5-2 hrs
Staphylococcus aureus [24] = assay: Disruption of bacterial cell membrane in Staphylococcus aureus ATCC 25923 assessed as increase in PI uptake incubated for 30 to 120 mins by FACS flow cytometry; assay type: functional, organism-based; settings: time 30-120 min
Pseudomonas aeruginosa [25] = assay: Synergistic antibacterial activity against Pseudomonas aeruginosa ATCC 27853 at 2 times MIC incubated for 18 to 24 hrs in presence of 2 times MIC of rifampicin by broth microdilution assay based checkerboard assay; assay type: functional; settings: time 18-24 hrs
Escherichia coli [26] = assay: Synergistic antibacterial activity against Escherichia coli ATCC 25922 at 2 times MIC incubated for 18 to 24 hrs in presence of 2 times MIC of rifampicin by broth microdilution assay based checkerboard assay; assay type: functional; settings: time 18-24 hrs
Klebsiella pneumoniae [27] = assay: Synergistic antibacterial activity against Klebsiella pneumoniae ATCC 700603 at 2 times MIC incubated for 18 to 24 hrs in presence of 2 times MIC of rifampicin by broth microdilution assay based checkerboard assay; assay type: functional; settings: time 18-24 hrs
Klebsiella pneumoniae [28] = assay: Synergistic antibacterial activity against Klebsiella pneumoniae ATCC 700603 at 2 times MIC incubated for 18 to 24 hrs in presence of 2 times MIC of gentamycin by broth microdilution assay based checkerboard assay; assay type: functional; settings: time 18-24 hrs
Pseudomonas aeruginosa [29] = assay: Antibacterial activity against rifampin-resistant Pseudomonas aeruginosa ATCC 27853 incubated for 18 hrs by CLSI based broth dilution method; assay type: functional
Klebsiella pneumoniae [30] = assay: Antibacterial activity against Klebsiella pneumoniae ATCC 700603 infected in BALB/C mouse assessed as reduction in bacterial load in lung at 5 mg/kg, ip measured within 24 hrs by agar plate counting method (reference value: 2.77 x 10^7 CFU/mg); assay type: functional
[31] = Toxicity in ip dosed BALB/C mouse measured within 14 days by Karber-method; assay type: organism-based; settings: in vivo, time 14 day
[32] = Toxicity in BALB/C mouse assessed as mouse death at 15 to 25 mg/kg, ip measured within 2 days; assay type: organism-based; settings: in vivo, 48 h, dose 15-25 mg/kg, time 2 day
Klebsiella pneumoniae [33] = assay: Disruption of membrane integrity in Klebsiella pneumoniae ATCC 700603 assessed as pore formation at 1 times MIC incubated for 0.5 to 2 hrs by scanning electron microscopy; assay type: functional, organism-based; settings: time 0.5-2 hrs
Cell membrane [34] = assay: Disruption of membrane integrity in Klebsiella pneumoniae ATCC 700603 assessed as membrane shrinking at 1 times MIC measured within 0.5 to 2 hrs by scanning electron microscopy; assay type: subcellular; settings: Klebsiella pneumoniae 700603, time 0.5-2 hrs
[35] = Toxicity in BALB/C mouse assessed as induction of tissue hemorrhage at 19 mg/kg, ip administered as single dose by hematoxylin and eosin staining based assay; assay type: organism-based; settings: in vivo
[36] = 2M, TDE = time-dependent effect

CC[C@H](C)CCCCC(=O)N[C@@H](CCN)C(=O)N[C@H](C(=O)N[C@@H](CCN)C(=O)N[C@H]1CCNC(=O)[C@H]([C@@H](C)O)NC(=O)[C@H](CCN)NC(=O)[C@H](CCN)NC(=O)[C@H](CC(C)C)NC(=O)[C@@H](Cc2ccccc2)NC(=O)[C@H](CCN)NC1=O)[C@@H](C)O (X1-[Dab]T[Dab][Dab][Dab][dF]L[Dab][Dab]T; lactam 4-C)
MIC (Staphylococcus aureus [1]): 16 µM (≈ 19.3 µg/mL) | MIC (Bacillus subtilis): 8 µM (≈ 9.63 µg/mL) | MIC (Enterococcus faecalis): 128 µM (≈ 154 µg/mL) | MIC [2]: 32 µM (≈ 38.5 µg/mL) | MIC (Escherichia coli [3]): 4 µM (≈ 4.81 µg/mL) | MIC (Pseudomonas aeruginosa [4]): 4 µM (≈ 4.81 µg/mL) | MIC (Klebsiella pneumoniae [5]): 4 µM (≈ 4.81 µg/mL) | MIC (Acinetobacter baumannii): 32 µM (≈ 38.5 µg/mL) | MHC10 (Erythrocyte): >= 512 uM | IC50 [6]: ≥ 512 µM | Activity (Cell membrane [7]): inactive | MIC (Pseudomonas aeruginosa [8]): 2 µM (≈ 2.41 µg/mL) | MIC (Bacteria [9]): 12.3 µM (≈ 14.9 µg/mL) | MIC (Fungi): 12.3 µM (≈ 14.9 µg/mL) | selectivity ratio [10]: 4150 | selectivity ratio [11]: 4150 | MIC (Bacteria [12]): 26.9 µM (≈ 32.4 µg/mL) | selectivity ratio at 18 h [13]: 19 | MIC (Bacteria [14]): 5.66 µM (≈ 6.81 µg/mL) | selectivity ratio [15]: 90.5 | Activity (Staphylococcus aureus [16]): Tde | Activity (Klebsiella pneumoniae [17]; [36]): Tde | Activity (Staphylococcus aureus [18]): Active | Activity (Cell membrane [19]): inactive | Activity (Staphylococcus aureus [20]): Active | Activity (Lipopolysaccharide (LPS)): Dose-Dependent Effect | Activity (Staphylococcus aureus [21]): inactive | Activity (Cell membrane [22]): inactive | Activity (Cell membrane [23]): Active | Activity (Staphylococcus aureus [24]): inactive | FIC (Pseudomonas aeruginosa [25]): 0.3125 | FIC (Escherichia coli [26]): 0.125 | FIC (Klebsiella pneumoniae [27]): 0.3125 | FIC (Klebsiella pneumoniae [28]): 0.5 | MIC (Pseudomonas aeruginosa [29]): 2 µM (≈ 2.41 µg/mL) | Activity (Klebsiella pneumoniae [30]): 3.21 10^4CFU/ml | LD50 at 336 h [31]: 16.4 mg/kg | Activity [32]: Toxic

NCCCC[C@H](NC(=O)[C@H](CCCCN)NC(=O)[C@H](Cc1c[nH]c2ccccc12)NC(=O)[C@H](CCCCN)NC(=O)[C@H](CCCCN)NC(=O)[C@H](Cc1c[nH]c2ccccc12)NC(=O)[C@H](Cc1c[nH]c2ccccc12)NC(=O)[C@@H](N)CCCCN)C(=O)N[C@@H](Cc1c[nH]c2ccccc12)C(=O)N[C@@H](Cc1c[nH]c2ccccc12)C(N)=O (H-KWWKKWKKWW-NH2)
MIC (Staphylococcus aureus [1]): 4 µM (≈ 6.36 µg/mL) | MIC (Bacillus subtilis): 4 µM (≈ 6.36 µg/mL) | MIC (Enterococcus faecalis): 8 µM (≈ 12.7 µg/mL) | MIC [2]: 4 µM (≈ 6.36 µg/mL) | MIC (Escherichia coli [3]): 4 µM (≈ 6.36 µg/mL) | MIC (Pseudomonas aeruginosa [4]): 4 µM (≈ 6.36 µg/mL) | MIC (Klebsiella pneumoniae [5]): 8 µM (≈ 12.7 µg/mL) | MIC (Acinetobacter baumannii): 8 µM (≈ 12.7 µg/mL) | MHC10 (Erythrocyte): 134.38 µM | IC50 [6]: 40.2 µM | Activity (Cell membrane [7]): Active | MIC (Pseudomonas aeruginosa [8]): 2 µM (≈ 3.18 µg/mL) | MIC (Bacteria [9]): 4.76 µM (≈ 7.56 µg/mL) | MIC (Fungi): 4.76 µM (≈ 7.56 µg/mL) | selectivity ratio [10]: 28.2 | selectivity ratio [11]: 28.2 | MIC (Bacteria [12]): 4.76 µM (≈ 7.56 µg/mL) | selectivity ratio at 18 h [13]: 28.2 | MIC (Bacteria [14]): 4.76 µM (≈ 7.56 µg/mL) | selectivity ratio [15]: 28.2 | Activity (Staphylococcus aureus [16]): Tde | Activity (Klebsiella pneumoniae [17]): 100% | Activity (Klebsiella pneumoniae [17]; [36]): Tde | Activity (Cell membrane [19]): inactive | Activity (Staphylococcus aureus [20]): Active | Activity (Lipopolysaccharide (LPS)): Dose-Dependent Effect | Activity (Staphylococcus aureus [21]): Active | Activity (Klebsiella pneumoniae [33]): Active | Activity (Cell membrane [22]): Active | Activity (Cell membrane [23]): Active | Activity (Cell membrane [34]): Active | Activity (Staphylococcus aureus [24]): Active | FIC (Pseudomonas aeruginosa [25]): 0.5625 | FIC (Escherichia coli [26]): 0.75 | FIC (Klebsiella pneumoniae [27]): 0.3125 | FIC (Klebsiella pneumoniae [28]): 0.5625 | MIC (Pseudomonas aeruginosa [29]): 2 µM (≈ 3.18 µg/mL) | Activity (Klebsiella pneumoniae [30]): 4.12 10^4CFU/mg | LD50 at 336 h [31]: 66.5 mg/kg | Activity [32]: Toxic | Activity [35]: Toxic

— ChEMBL document CHEMBL4823282, “Novel Broad-Spectrum Antimicrobial Peptide Derived from Anoplin and Its Activity on Bacterial Pneumonia in Mice” (J Med Chem, 2021)
